Usually zone of inhibition stands for the extent of the growth-free halo in a diffusion test.

Data on one compound can be found in US20220047494A1, “ANTIBACTERIAL, DEODORIZATION, EASING OF ACNE AND ATOPY OR SKIN CALMING-FUNCTIONAL COMPOSITION FOR Y-ZONE CLEANLINESS CONTAINING QUERCUS ACUTISSIMA SAP AND ZINC RICINOLEATE” (MEDICLASSIC.CO.LTD, priority 2020, published 2022).

For the experiment, the system named is Staphylococcus epidermidis (KTTC12228). Kind of experiment: Paper disk diffusion antibacterial activity. The experiment is classed as cell-based. The conditions noted are these: paper disk 8 mm, mean ± SD (n = 3). The source says:
In Experimental Example according to the present invention, Propionibacterium acnes (KCTC3314), which is an acne-causing pathogen, Candida albicans (ATCC 10231), which is a yeast that causes inflammatory or bacterial skin diseases, and Staphylococcus epidermidis (KTTC12228), which is gram-positive skin flora, were used. Propionibacterium acnes (KCTC3314) was inoculated into reinforced clostridial (RC) medium, sealed using a […] system in an anaerobic culture tank, and then anaerobically cultured at 37° C. for two days. As an aerobic strain of Candida albicans (ATCC 10231), Sabaurd Dextrose Agar (Difco. USA) was used, inoculated with the bacteria, and cultured in an incubator at 25° C. for 24 hours. As an aerobic strain, Staphylococcus epidermidis (KTTC12228) was inoculated into Mueller-Hinton medium and cultured at 37° C. for 24 hours before use. With respect to the ingredients according to Preparation Example and Comparative Preparation Example, an antibacterial activity against Staphylococcus epidermidis (KTC12228) was measured by using a paper disk diffusion method. Specifically, the evaluation of antibacterial activity against Staphylococcus epidermidis (KTTC12228), which is a secondary acne-causing pathogen, was performed by carrying out a cultivation with Muller-Hinton medium at 37° C. for 24 hours, and evenly spreading a bacterial suspension adjusted at a constant concentration (absorbance of 0.5 at an optical density of 620 nm) on an RC agar plate using a sterile cotton swab. After that, the plate was dried and a paper disk (Φ 8 mm, […]. USA) was placed on the surface of the plate inoculated with the strain, after which samples according to Preparation Example 2 and Comparative Preparation Examples 1 to 4, the positive control tetracycline and a mixed sample of Preparation Examples 1 and 2 (6:4) were absorbed thereon for each concentration. The sample-treated plate was cultured in an anaerobic culture tank for three days using the […] system, after which the antibacterial activity was measured by the size of the inhibition zone around the disk, and the results thereof are shown in table 2 below, respectively.
A general note: In agar diffusion tests the substance spreads into inoculated agar from a disc or well.

Structures are written as SMILES.

For `CN(C)[C@@H]1C(O)=C(C(N)=O)C(=O)[C@@]2(O)C(O)=C3C(=O)c4c(O)cccc4[C@@](C)(O)[C@H]3C[C@@H]12` [Tetracycline, tetracycline], the zone of inhibition at 1000 µg/disc (Staphylococcus epidermidis, concentration 1 mg, read-out: Zone of inhibition (diameter in mm)) is approximately 12 mm. Further, the zone of inhibition at 5000 µg/disc (Staphylococcus epidermidis, concentration 5 mg, read-out: Zone of inhibition (diameter in mm)) was approximately 14 mm. Also, the “Zone of inhibition (diameter in mm)” value runs as follows: (concentration 1 mg) 12.82 ± 0.43 mm; (concentration 5 mg) 14.92 ± 0.23 mm.
